From ChEMBL document CHEMBL5370565, “Inhibition of Cysteine Proteases via Thiol-Michael Addition Explains the Anti-SARS-CoV-2 and Bioactive Properties of Arteannuin B” (J Nat Prod, 2023)

Tested on: SARS-CoV-2
Assay: Antiviral activity against SARS-CoV-2 nCoV-2019BetaCoV/Wuhan/WIV04/2019 infected in African green monkey Vero E6 cells assessed as reduction in viral yield preincubated with cells for 1 hrs followed by viral infection for 1 hrs with subsequent replacement of fresh media containing compound and measured 24 hrs post infection by qRT-PCR analysis
Assay type: functional, organism-based
Conditions: Severe acute respiratory syndrome coronavirus 2, nCoV-2019BetaCoV/Wuhan/WIV04/2019, Vero C1008

## C=C1C(=O)O[C@@]23C1CC[C@@H](C)[C@@H]2CC[C@@]1(C)O[C@@H]31 (stereo partly specified)
  EC50: 10.3 µM
